assay: Tested for the NMDA antagonist activity using a functional assay, by protection of cultured hippocampus neurons from the toxic effects of extracellularly applied glutamate

Row | Compound | IC50
1 | OC(CN1CCC(Cc2ccc(F)cc2)CC1)c1ccc(Cl)cc1 (stereo not given) | 1000 nM
2 | C[C@@H]([C@H](O)c1ccc2c(c1)CC(=O)N2)N1CCC(Cc2ccccc2)CC1 [5-[(1R,2S)-2-(4-Benzyl-piperidin-1-yl)-1-hydroxy-propyl]-1,3-dihydro-indol-2-one] | 231 nM
3 | C[C@@H]([C@@H](O)c1ccc2c(c1)CC(=O)N2)N1CCC(c2ccccc2)CC1 [5-[(1S,2S)-1-Hydroxy-2-(4-phenyl-piperidin-1-yl)-propyl]-1,3-dihydro-indol-2-one] | 40 nM
4 | C[C@@H]([C@@H](O)c1ccc2c(c1)CC(=O)N2)N1CCC(Cc2ccccc2)CC1 [5-[(1S,2S)-2-(4-Benzyl-piperidin-1-yl)-1-hydroxy-propyl]-1,3-dihydro-indol-2-one] | 111 nM
5 | O=C1Cc2cc(C(O)CN3CCC(Cc4ccc(F)cc4)CC3)ccc2N1 (stereo not given) [5-{2-[4-(4-Fluoro-benzyl)-piperidin-1-yl]-1-hydroxy-ethyl}-1,3-dihydro-indol-2-one] | 600 nM

— BindingDB's records for doi:10.1016/S0960-894X(00)80098-0 (1993)
